In ChEMBL document CHEMBL3885861, “Open TG-GATES”:

Organism: Rattus norvegicus
Assay: Open TG-GATES - Regimen: Single
Assay type: toxicity, organism-based, Sprague-Dawley
Parameters: regimen Single, gender Male, age 6 weeks
Conditions: in vivo, po, 100 mg/kg, route gavage, dose level High; for APTT / Bas / Eos / Fbg / Hb / Ht / Lym / MCH / MCHC / MCV / Mono / Neu / PT / Plat / RBC / Ret / WBC: tissue Blood; for KIDNEY_L / KIDNEY_R / KIDNEY_TOTAL: tissue Kidney; for LIVER: tissue Liver; for A/G / ALP / ALT / AST / BUN / CRE / Ca / Cl / DBIL / GLC / IP / K / LDH / Na / PL / RALB / TBIL / TC / TG / TP / gamma-GTP: tissue Plasma

CN(C)CCN(Cc1cccs1)c1ccccn1
TERMINAL_BW (3 h): 184.9 g | APTT (3 h): 21.5 s | Bas (3 h): 0% | Eos (3 h): 0.8% | Fbg (3 h): 290.4 mg/dL | Hb (3 h): 13.2 g/dL | Ht (3 h): 40.2% | Lym (3 h): 74% | MCH (3 h): 20.6 pg | MCHC (3 h): 32.9% | MCV (3 h): 62.8 fL | Mono (3 h): 2% | Neu (3 h): 22.2% | PT (3 h): 16.3 s | Plat (3 h): 121.5 x10_4/uL | RBC (3 h): 640.8 x10_4/ul | Ret (3 h): 7.2% | WBC (3 h): 60.8 x10_2/uL | KIDNEY_L (3 h): 0.8 g | KIDNEY_R (3 h): 0.9 g | KIDNEY_TOTAL (3 h): 1.7 g | LIVER (3 h): 8 g | A/G (3 h): 1.2 | ALP (3 h): 1601.8 IU/L | ALT (3 h): 54.6 IU/L | AST (3 h): 82.2 IU/L | BUN (3 h): 10.8 mg/dL | CRE (3 h): 0.1 mg/dL | Ca (3 h): 10.3 mg/dL | Cl (3 h): 106.6 meq/L | DBIL (3 h): 0.002 mg/dL | GLC (3 h): 185 mg/dL | IP (3 h): 8.3 mg/dL | K (3 h): 4.3 meq/L | LDH (3 h): 258.8 IU/L | Na (3 h): 142.4 meq/L | PL (3 h): 121.4 mg/dL | RALB (3 h): 2.9 g/dL | TBIL (3 h): 0.012 mg/dL | TC (3 h): 69.8 mg/dL | TG (3 h): 36 mg/dL | TP (3 h): 5.4 g/dL | gamma-GTP (3 h): 1 IU/L | TERMINAL_BW (6 h): 183.8 g | APTT (6 h): 21.3 s | Bas (6 h): 0% | Eos (6 h): 0.4% | Fbg (6 h): 282.2 mg/dL | Hb (6 h): 13.1 g/dL | Ht (6 h): 39.5% | Lym (6 h): 76% | MCH (6 h): 21.6 pg | MCHC (6 h): 33.3% | MCV (6 h): 64.8 fL | Mono (6 h): 2.4% | Neu (6 h): 20.6% | PT (6 h): 16.6 s | Plat (6 h): 120.5 x10_4/uL | RBC (6 h): 610 x10_4/ul | Ret (6 h): 8.4% | WBC (6 h): 73.4 x10_2/uL | KIDNEY_L (6 h): 0.8 g | KIDNEY_R (6 h): 0.8 g | KIDNEY_TOTAL (6 h): 1.7 g | LIVER (6 h): 7.5 g | A/G (6 h): 1.1 | ALP (6 h): 1538 IU/L | ALT (6 h): 51.2 IU/L | AST (6 h): 90.2 IU/L | BUN (6 h): 14.6 mg/dL | CRE (6 h): 0.2 mg/dL | Ca (6 h): 10.5 mg/dL | Cl (6 h): 107.4 meq/L | DBIL (6 h): 0.004 mg/dL | GLC (6 h): 170.2 mg/dL | IP (6 h): 9.4 mg/dL | K (6 h): 4.5 meq/L | LDH (6 h): 259.2 IU/L | Na (6 h): 141.8 meq/L | PL (6 h): 110 mg/dL | RALB (6 h): 2.8 g/dL | TBIL (6 h): 0.02 mg/dL | TC (6 h): 64.8 mg/dL | TG (6 h): 33.4 mg/dL | TP (6 h): 5.2 g/dL | gamma-GTP (6 h): 1 IU/L | TERMINAL_BW (9 h): 183.7 g | APTT (9 h): 21.3 s | Bas (9 h): 0% | Eos (9 h): 0.8% | Fbg (9 h): 284.6 mg/dL | Hb (9 h): 13.2 g/dL | Ht (9 h): 39.6% | Lym (9 h): 72.2% | MCH (9 h): 21.1 pg | MCHC (9 h): 33.3% | MCV (9 h): 63.5 fL | Mono (9 h): 3.6% | Neu (9 h): 22.6% | PT (9 h): 16.2 s | Plat (9 h): 122.3 x10_4/uL | RBC (9 h): 624.2 x10_4/ul | Ret (9 h): 7.6% | WBC (9 h): 71.6 x10_2/uL | KIDNEY_L (9 h): 0.8 g | KIDNEY_R (9 h): 0.9 g | KIDNEY_TOTAL (9 h): 1.7 g | LIVER (9 h): 7.8 g | A/G (9 h): 1.2 | ALP (9 h): 1538 IU/L | ALT (9 h): 60.2 IU/L | AST (9 h): 100.6 IU/L | BUN (9 h): 11 mg/dL | CRE (9 h): 0.1 mg/dL | Ca (9 h): 10.1 mg/dL | Cl (9 h): 107.6 meq/L | DBIL (9 h): 0 mg/dL | GLC (9 h): 172.8 mg/dL | IP (9 h): 9.7 mg/dL | K (9 h): 4.2 meq/L | LDH (9 h): 233.6 IU/L | Na (9 h): 141.8 meq/L | PL (9 h): 117 mg/dL | RALB (9 h): 2.9 g/dL | TBIL (9 h): 0.022 mg/dL | TC (9 h): 68 mg/dL | TG (9 h): 35 mg/dL | TP (9 h): 5.3 g/dL | gamma-GTP (9 h): 1.2 IU/L | TERMINAL_BW (24 h): 193.3 g | APTT (24 h): 20.8 s | Bas (24 h): 0% | Eos (24 h): 0.8% | Fbg (24 h): 275.2 mg/dL | Hb (24 h): 13 g/dL | Ht (24 h): 39.4% | Lym (24 h): 73.2% | MCH (24 h): 20.7 pg | MCHC (24 h): 32.9% | MCV (24 h): 62.9 fL | Mono (24 h): 2.8% | Neu (24 h): 22.2% | PT (24 h): 17.3 s | Plat (24 h): 114.4 x10_4/uL | RBC (24 h): 627 x10_4/ul | Ret (24 h): 7% | WBC (24 h): 61.6 x10_2/uL | KIDNEY_L (24 h): 0.8 g | KIDNEY_R (24 h): 0.9 g | KIDNEY_TOTAL (24 h): 1.7 g | LIVER (24 h): 9.1 g | A/G (24 h): 1.3 | ALP (24 h): 1813.6 IU/L | ALT (24 h): 68.4 IU/L | AST (24 h): 109.6 IU/L | BUN (24 h): 16 mg/dL | CRE (24 h): 0.2 mg/dL | Ca (24 h): 10.7 mg/dL | Cl (24 h): 106.6 meq/L | DBIL (24 h): 0.004 mg/dL | GLC (24 h): 172 mg/dL | IP (24 h): 7.8 mg/dL | K (24 h): 4.4 meq/L | LDH (24 h): 260.2 IU/L | Na (24 h): 143.2 meq/L | PL (24 h): 136 mg/dL | RALB (24 h): 2.9 g/dL | TBIL (24 h): 0.01 mg/dL | TC (24 h): 70.8 mg/dL | TG (24 h): 65.2 mg/dL | TP (24 h): 5.2 g/dL | gamma-GTP (24 h): 1 IU/L
